According to patent US7098340B2, “Benzyl sulfonamide derivatives” (Warner Lambert Company LLC, priority 2003, dated 2006):

What follows are compounds tested against T1, androgen receptor (Homo sapiens, UniProt P10275) (assay: AR Antagonist Cell Assay (MMTV-luciferase reporter, DHT-stimulated)). Settings: MDA-MB453-MMTV clone 54-19 cells; antagonism of 100 pM DHT, 17 hr, luciferase readout.
T1 sequence (P10275 1-920 Q868H): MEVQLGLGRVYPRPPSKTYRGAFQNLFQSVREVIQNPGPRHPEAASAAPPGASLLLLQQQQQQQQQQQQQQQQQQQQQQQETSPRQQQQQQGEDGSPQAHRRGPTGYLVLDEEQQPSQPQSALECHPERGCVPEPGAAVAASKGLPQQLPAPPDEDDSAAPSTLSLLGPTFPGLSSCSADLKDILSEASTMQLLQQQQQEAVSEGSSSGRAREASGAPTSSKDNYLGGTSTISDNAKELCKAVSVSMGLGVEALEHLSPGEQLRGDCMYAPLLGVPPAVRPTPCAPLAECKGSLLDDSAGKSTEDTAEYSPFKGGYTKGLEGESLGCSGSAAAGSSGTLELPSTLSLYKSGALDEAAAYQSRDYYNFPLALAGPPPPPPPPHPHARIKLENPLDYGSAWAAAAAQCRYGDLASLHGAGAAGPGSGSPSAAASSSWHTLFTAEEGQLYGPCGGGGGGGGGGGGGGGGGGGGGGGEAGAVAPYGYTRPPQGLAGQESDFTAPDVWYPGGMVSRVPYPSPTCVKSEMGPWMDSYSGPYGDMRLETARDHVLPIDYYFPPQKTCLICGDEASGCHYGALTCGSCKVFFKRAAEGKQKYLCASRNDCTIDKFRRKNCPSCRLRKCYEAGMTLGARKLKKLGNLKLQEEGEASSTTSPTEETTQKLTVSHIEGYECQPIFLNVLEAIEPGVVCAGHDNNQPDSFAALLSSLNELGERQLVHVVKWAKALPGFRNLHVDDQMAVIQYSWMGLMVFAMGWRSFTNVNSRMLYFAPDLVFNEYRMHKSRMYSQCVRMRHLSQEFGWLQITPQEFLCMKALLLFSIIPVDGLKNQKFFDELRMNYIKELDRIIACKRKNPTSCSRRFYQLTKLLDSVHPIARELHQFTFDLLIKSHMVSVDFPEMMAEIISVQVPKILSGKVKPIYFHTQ
Format: cell-based
Experimental: The compounds ability to antagonize the effects of androgen on the androgen receptor were determined in the protocol described immediately below.
Experimental Procedure for AR Antagonist Cell Assay
Cell line: MDA-MB453-MMTV clone 54–19. This cell line is a stable transfected cell line with MDA-MB453 cell background (human breast tumor cell expressing high level of androgen receptor). A MMTV minimal promoter containing ARE was first cloned in front of a firefly luciferase reporter gene. Then the cascade was cloned into transfection vector pUV120puro. Electroporation method was used for transfecting MDA-MB-453 cell. Puromycin resistant stable cell line was selected.
Cell Culture Media and Reagents:
Culture medium: DMEM (high glucose, Gibco cat #: 11960-044), 10% FBS, and 1% L-glutamine
Plating medium: DMEM (phenol red free), 10% charcoal treated HyClone serum, 1% L-glutamine
Assay medium: DMEM (phenol red free), 1% charcoal treated HyClone serum, 1% L-glutamine, and 1% penicillin/streptomycin
3× luciferase buffer: 2% beta-mercaptoethanol, 0.6% ATP, 0.0135% luciferine in cell lysis buffer
• 1. Cells are maintained in culture medium, splitting cells when they reach 80–90% confluence • 2. To test compounds, 10,000 cells/well are plated to opaque 96 cell culture plate in 100 ul/well plating medium, culture for overnight at 37° C. in cell culture incubator • 3. Carefully remove plating medium, then add 80 ul/well of pre-warmed assay medium, add 10 ul/well testing compound (final concentration at 10 uM or 1 uM), incubate at 37° C. for 30 minutes • 4. Add 10 ul/well freshly prepared DHT (final concentration at 100 pM) to each well, incubate at 37° C. for 17 hr (overnight) • 5. Add 50 ul/well 3× luciferase buffer, incubate at room temperature for 5 minutes, then count on Luminometer.
The fold induction over background by 100 pM DHT in the absence of testing compounds is standardized as 100% and experimental result is expressed as percentage of inhibition by testing compounds.

IC50 [µM]	SMILES
4.06	Cc1ccc(F)cc1CNS(=O)(=O)c1ccc(Cc2ccc3oc(=O)cc(C(F)(F)F)c3c2)cc1 [Example 185, N-(5-Fluoro-2-methylbenzyl)-4-(2-oxo-4-trifluoromethyl-2H-chromen-6-ylmethyl)-benzenesulfonamide]
6.97	O=c1cc(C(F)(F)F)c2cc(Cc3ccc(S(=O)(=O)NC4CCCCCC4)cc3)ccc2o1 [Example 166, N-Cycloheptyl-4-(2-oxo-4-trifluoromethyl-2H-chromen-6-ylmethyl)benzenesulfonamide]
2.19	O=c1cc(C(F)(F)F)c2cc(Cc3ccc(S(=O)(=O)NCc4ccccc4Br)cc3)ccc2o1 [Example 203, N-(2-Bromobenzyl)-4-(2-oxo-4-trifluoromethyl-2H-chromen-6-ylmethyl)benzenesulfonamide]
6.52	O=c1cc(C(F)(F)F)c2cc(Cc3ccc(S(=O)(=O)NC(CCO)c4ccccc4)cc3)ccc2o1 (centres unmarked) [Example 192, N-(3-Hydroxy-1-phenylpropyl)-4-(2-oxo-4-trifluoromethyl-2H-chromen-6-ylmethyl)benzenesulfonamide]
~10	O=c1cc(C(F)(F)F)c2cc(Cc3ccc(S(=O)(=O)NCC4CCCCC4)cc3)ccc2o1 [Example 165, N-Cyclohexylmethyl-4-(2-oxo-4-trifluoromethyl-2H-chromen-6-ylmethyl)benzene-sulfonamide]
5.5	O=c1cc(C(F)(F)F)c2cc(Cc3ccc(S(=O)(=O)NCCCn4ccnc4)cc3)ccc2o1 [Example 174, N-(3-Imidazol-1-ylpropyl)-4-(2-oxo-4-triftuoromethyl-2H-chromen-6-ylmethyl)benzenesulfonamide]
6.91	Cc1ccc(F)c(CNS(=O)(=O)c2ccc(Cc3ccc4oc(=O)cc(C(F)(F)F)c4c3)cc2)c1Cl [Example 200, N-(2-Chloro-6-fluoro-3-methylbenzyl)-4-(2-oxo-4-trifluoromethyl-2H-chromen-6-ylmethyl)benzenesulfonamide]
5.81	Cc1cccc(CNS(=O)(=O)c2ccc(Cc3ccc4oc(=O)cc(C(F)(F)F)c4c3)cc2)c1 [Example 169, N-(3-Methylbenzyl)-4-(2-oxo-4-trifluoromethyl-2H-chromen-6-ylmethyl)benzenesulfonamide]
8.58	O=c1cc(C(F)(F)F)c2cc(Cc3ccc(S(=O)(=O)Nc4cccc(OC(F)(F)F)c4)cc3)ccc2o1 [Example 147, 4-(2-Oxo-4-trifluoromethyl-2H-chromen-6-ylmethyl)-N-(3-trifluoromethoxyphenyl)-benzenesulfonamide]

More lines, now with the values behind:

SMILES	IC50 [µM]
CCCCN(CC)S(=O)(=O)c1ccc(Cc2ccc3oc(=O)cc(C(F)(F)F)c3c2)cc1 [Example 99, N-Butyl-N-ethyl-4-(2-oxo-4-trifluoromethyl-2H-chromen-6-ylmethyl)benzenesulfonamide]	4.15
O=c1cc(C(F)(F)F)c2cc(Cc3ccc(S(=O)(=O)Nc4cccc5cccnc45)cc3)ccc2o1 [Example 137, 4-(2-Oxo-4-trifluoromethyl-2H-chromen-6-ylmethyl)-N-quinolin-8-ylbenzenesulfonamide]	7.08
CN(c1ccccc1)S(=O)(=O)c1ccc(Cc2ccc3oc(=O)cc(C(F)(F)F)c3c2)cc1 [Example 114, N-Methyl-4-(2-oxo-4-trifluoromethyl-2H-chromen-6-ylmethyl)-N-phenylbenzenesulfonamide]	5.94
COc1cc(NS(=O)(=O)c2ccc(Cc3ccc4oc(=O)cc(C(F)(F)F)c4c3)cc2)cc(OC)c1 [Example 141, N-(3,5-Dimethoxyphenyl)-4-(2-oxo-4-trifluoromethyl-2H-chromen-6-ylmethyl)-benzenesulfonamide]	3.24
O=c1cc(C(F)(F)F)c2cc(Cc3ccc(S(=O)(=O)Nc4cccc5cnccc45)cc3)ccc2[nH]1 [Example 31, N-Isoquinolin-5-yl-4-(2-oxo-4-trifluoromethyl-1,2-dihydroquinolin-6-ylmethyl)-benzenesulfonamide]	> 10
CN(CCc1ccccc1)S(=O)(=O)c1ccc(Cc2ccc3oc(=O)cc(C(F)(F)F)c3c2)cc1 [Example 112, N-Methyl-4-(2-oxo-4-trifluoromethyl-2H-chromen-6-ylmethyl)-N-phenethyl-benzenesulfonamide]	> 10
O=c1cc(C(F)(F)F)c2cc(Cc3ccc(S(=O)(=O)Nc4cccc(OCc5ccccc5)c4)cc3)ccc2[nH]1 [Example 44, N-(3-Benzyloxyphenyl)-4-(2-oxo-4-trifluoromethyl-1,2-dihydroquinolin-6-ylmethyl)-benzenesulfonamide]	2.8
CN(CCC#N)S(=O)(=O)c1ccc(Cc2ccc3[nH]c(=O)cc(C(F)(F)F)c3c2)cc1 [Example 10, N-(2-Cyanoethyl)-N-methyl-4-(2-oxo-4-trifluoromethyl-1,2-dihydroquinolin-6-ylmethyl)benzenesulfonamide]	> 10
CN(CCC#N)S(=O)(=O)c1ccc(Cc2ccc3oc(=O)cc(C(F)(F)F)c3c2)cc1 [Example 108, N-(2-Cyanoethyl)-N-methyl-4-(2-oxo-4-trifluoromethyl-2H-chromen-6-ylmethyl)-benzenesulfonamide]	4.72
O=c1cc(C(F)(F)F)c2cc(Cc3ccc(S(=O)(=O)N(CCO)C4CCCCC4)cc3)ccc2[nH]1 [Example 4, N-Cyclohexyl-N-(2-hydroxyethyl)-4-(2-oxo-4-trifluoromethyl-1,2-dihydroquinolin-6-ylmethyl)benzenesulfonamide]	> 10
O=c1cc(C(F)(F)F)c2cc(Cc3ccc(S(=O)(=O)Nc4cccc(OC(F)F)c4)cc3)ccc2o1 [Example 143, N-(3-Difluoromethoxyphenyl)-4-(2-oxo-4-trifluoromethyl-2H-chromen-6-ylmethyl)-benzenesulfonamide]	2.81
COCCN(CCOC)S(=O)(=O)c1ccc(Cc2ccc3[nH]c(=O)cc(C(F)(F)F)c3c2)cc1 [Example 12, N,N-Bis(2-methoxyethyl)-4-(2-oxo-4-trifluoromethyl-1,2-dihydroquinolin-6-ylmethyl)benzenesulfonamide]	> 10
O=c1cc(C(F)(F)F)c2cc(Cc3ccc(S(=O)(=O)NC(CCO)c4ccccc4)cc3)ccc2[nH]1 (centres unmarked) [Example 72, N-(3-Hydroxy-1-phenylpropyl)-4-(2-oxo-4-trifluoromethyl-1,2-dihydroquinolin-6-ylmethyl)-benzenesulfonamide]	> 10
Cc1ccc(CNS(=O)(=O)c2ccc(Cc3ccc4[nH]c(=O)cc(C(F)(F)F)c4c3)cc2)o1 [Example 55, N-(5-Methylfuran-2-ylmethyl)-4-(2-oxo-4-trifluoromethyl-1,2-dihydroquinolin-6-ylmethyl)-benzenesulfonamide]	> 10
CC(CNS(=O)(=O)c1ccc(Cc2ccc3[nH]c(=O)cc(C(F)(F)F)c3c2)cc1)c1ccccc1 (centres unmarked) [Example 65, 4-(2-Oxo-4-trifluoromethyl-1,2-dihydroquinolin-6-ylmethyl)-N-(2-phenylpropyl)-benzenesulfonamide]	5.38
CCCN(CCO)S(=O)(=O)c1ccc(Cc2ccc3[nH]c(=O)cc(C(F)(F)F)c3c2)cc1 [Example 8, N-(2-Hydroxyethyl)-4-(2-oxo-4-trifluoromethyl-1,2-dihydroquinolin-6-ylmethyl)-N-propylbenzenesulfonamide]	3.25
O=c1cc(C(F)(F)F)c2cc(Cc3ccc(S(=O)(=O)NCc4cccc(Cl)c4F)cc3)ccc2[nH]1 [Example 77, N-(3-Chloro-2-fluorobenzyl)-4-(2-oxo-4-trifluoromethyl-1,2-dihydroquinolin-6-ylmethyl)-benzenesulfonamide]	> 10
